This note sets out measurements from publication PMC11591284, “Development and Optimization of a Redox Enzyme-Based Fluorescence Biosensor for the Identification of MsrB1 Inhibitors” (Antioxidants, 2024).

A word on the Kd: it is a measure of binding affinity in units of concentration.

Test [1] has as its system C57BL/6 mice. The test is described as follows: TPA-induced acute skin inflammation (ear edema) model. It counts as in vivo, mouse. Particulars: WT mice, 0.5 μM inhibitor in drinking water for 21 days, topical TPA. As for the experimental part:
Six-week-old male wild-type (WT) C57BL/6 mice and MsrB1 knockout (KO) mice were used in this experiment. The mice were provided with 50 mL water containing either 0.5 μM MsrB1 inhibitors dissolved in 1% DMSO or 1% DMSO alone (control) for 21 days. After this period, 50 μg·mL^−1 of TPA was applied to the right ear of each mouse, while the left ear received acetone as a control. Twenty hours after the initial TPA application, a second dose was administered. The mice were then sacrificed, and ear tissue samples were collected. The tissues were fixed in 10% formalin, dehydrated, embedded in paraffin, and sectioned into slices 3–5 μm thick. The sections were deparaffinized, rehydrated, and stained with hematoxylin and eosin (H&E) for histological examination under microscopy.

The target of test [2] is T1, MsrB1 (Mus musculus, UniProt Q9JLC3, U95C).
T1 construct: made in house
T1 sequence (Q9JLC3 1-116 U95C): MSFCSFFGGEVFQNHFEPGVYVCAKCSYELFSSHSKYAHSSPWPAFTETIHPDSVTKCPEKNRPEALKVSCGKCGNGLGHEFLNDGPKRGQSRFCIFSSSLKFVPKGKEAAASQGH
The test is described as follows: MsrB1 activity assay by HPLC with dabsylated MetO as substrate. Type of test: biochemical. Particulars: dabsyl-MetO to dabsyl-Met. As for the experimental part: Methionine sulfoxide reductase B1 activity was determined using dabsylated MetO as substrate. […] The reaction was conducted for 30 min at 37 °C in a water bath and stopped by adding 200 μL of acetonitrile and vortexing. The reaction product, dabsyl-Met, was analyzed by HPLC using a ZORBAX RX-C18 column (5 μm; 4.6 × 150 mm). The column was pre-equilibrated with 0.14 M sodium acetate (pH 6.1), 0.5 mL/L triethylamine, and 30% acetonitrile. A total of 50 μL of the sample was loaded onto the column. The flow rate was 1 mL·min^−1, and a linear gradient elution mode was used (30% to 70%). Dabsyl-Met was detected via absorbance at 436 nm.

Test [3] addresses T2, Recombinant mouse MsrB1 protein (Mus musculus, UniProt Q9JLC3, U95C).
T2 construct: made in house; host or cells: E. coli (inferred; Rosetta2 (DE3) pLysS and pET-28a are described only for the RIYsense fusion)
T2 sequence (Q9JLC3 1-116 U95C): T1 sequence (Q9JLC3 1-116 U95C)
Description: Microscale thermophoresis (MST) binding assay. Particulars: read-out: KD ± SD. As for the experimental part:
MST analysis was performed using the Monolith NT.115 system (NanoTemper Technologies, München, Germany). Recombinant mouse MsrB1 protein was labeled with the Monolith His-Tag Labeling Kit RED-tris-NTA 2nd Generation (NanoTemper Technologies, Germany). The protein was prepared at a concentration of 200 nM, and the RED-tris-NTA 2nd Generation dye was diluted to 100 nM in the PBS-T (Tween 20) buffer. A mixture of 100 μL of 200 nM protein and 100 μL of 100 nM dye was incubated at RT for 30 min. After incubation, the sample was centrifuged at 13,000 rpm at 4 °C for 10 min, and the supernatant was transferred to a new tube, completing the protein labeling process and preparing the sample for analysis. Inhibitor compounds were serially diluted in DMSO, starting at a concentration of 1.25 mM (1:1 dilution, 16 points), and then each of the 16 dilutions was further diluted fivefold with PBS-T buffer. Next, 10 μL of the diluted compounds were mixed with 10 μL of the labeled protein, followed by resuspension and incubation for 10 min at RT. The samples were loaded into capillaries in serial order and analyzed using the Monolith NT.115 system at 60% LED power and 60% MST power. Changes in normalized fluorescence, dependent on the concentration of the compounds after 30 s of MST on time, were analyzed to determine Kd values.
On the technique in general: Microscale thermophoresis detects binding through changes in fluorescence in a small temperature gradient.

Test [4] deals with T1, MsrB1. The test is described as follows: NADPH consumption assay of MsrB1 activity. Type of test: biochemical. Particulars: absorbance at 340 nm, 900 s vs 0 min; approximately 50 μM compound; DMSO control 0.638. As to the method: The activity of MsrB1 was assessed over a 900-s period in a 20 mM 4-(2-hydroxyethyl)-1-piperazineethanesulfonic acid (HEPES) buffer at pH 7.5 and 37 °C. The reaction mixture contained 500 μM N-AcMetO, 6 μM MsrB1, 2 μM mouse thioredoxin, 1 μM mouse thioredoxin reductase, 50 μM NADPH, and approximately 50 μM of a chemical compound. All components, except for the chemical compound, substrate (N-AcMetO), and NADPH, were pre-mixed. The chemical compound was added and incubated for 10 min. NADPH (50 μM) and 500 μM N-AcMetO were added before absorbance measurements began. The rate of NADPH oxidation was monitored by measuring absorbance at 340 nm every 30 s until the reaction was complete.

The subject of test [5] is bone marrow-derived macrophages (BMDMs). The test is described as follows: Cytokine mRNA expression in LPS-stimulated bone marrow-derived macrophages. It counts as cell-based, mouse. Particulars: WT BMDMs, 1 μM inhibitor, LPS stimulation 24 h. As for the experimental part: Bone marrow-derived macrophages (BMDMs) were generated by culturing bone marrow cells isolated from 8-week-old male C57BL/6 mice and MsrB1 knockout (KO) mice. The cells were cultured in high-glucose Dulbecco’s Modified Eagle Medium (DMEM) (Cytiva, Marlborough, MA, USA) supplemented with 10% fetal bovine serum (FBS), 100 U·mL^−1 penicillin-streptomycin (Gibco, Waltham, MA, USA), 20 mM HEPES (Gibco, Waltham, MA, USA), and 50 ng·mL^−1 recombinant mouse macrophage colony-stimulating factor (M-CSF) (BioLegend, San Diego, CA, USA). On day 3, 10 mL of fresh medium containing 50 ng·mL^−1 M-CSF was added to the cultures. On day 5, cells were treated with 1 μM MsrB1 inhibitors. On day 6, cells were treated with LPS (BioLegend, San Diego, CA, USA) for 24 h. Following treatment, cells were harvested, and total RNA was extracted using the High-Capacity cDNA Reverse Transcription Kit (Applied Biosystems, Foster City, CA, USA). Gene expression of IL-10 and IL-1rn mRNA was analyzed using the QuantStudio 3 Real-Time PCR system.

On to `CCc1ccc(C2=NN(c3ccc(S(N)(=O)=O)cc3)C(c3ccc(O)cc3)C2)cc1` (centres unmarked) [A06, 4-[5-(4-ethylphenyl)-3-(4-hydroxyphenyl)-3,4-dihydropyrazol-2-yl]benzenesulfonamide], for which the “Dermal area of TPA-treated auricle (H&E) compared to wild-type control mice” value in test [1] is given as “substantially more enlarged”. The “Relative enzyme activity of MsrB1” value in test [2] (10 µM compound) was “no inhibition was observed”. Besides, the “Relative enzyme activity of MsrB1” value in test [2] (100 µM and 500 µM compound) is recorded as “decreased in a concentration-dependent manner”. Moreover, the Kd in test [3] was found to be 28.3 ± 1.21 nM. Further, the “NADPH (Abs15min/Abs0min)” value in test [4] turned out to be 0.942. Besides, in test [5], the “IL-1rn mRNA expression” value is reported as “reduced” and the “IL-10 mRNA expression” value is recorded as “significantly reduced”.

For the molecule `CCc1ccc(-n2c3nc(=O)[nH]c(=O)c-3cc3c(Cl)cccc32)cc1` [B03, 6-chloro-10-(4-ethylphenyl)pyrimido[4,5-b]quinoline-2,4-dione], in test [1], the “Dermal area of TPA-treated auricle (H&E) compared to wild-type control mice” value is reported as “substantially more enlarged”. The “Relative enzyme activity of MsrB1” value in test [2] (10 µM compound) is on record as “no inhibition was observed”. Moreover, the “Relative enzyme activity of MsrB1” value in test [2] (100 µM and 500 µM compound) is recorded as “decreased in a concentration-dependent manner”. In addition, in test [3], the Kd was determined as 97.1 ± 1.6 nM. Also, the “NADPH (Abs15min/Abs0min)” value in test [4] is reported as 0.918. In test [5], the “IL-1rn mRNA expression” value is listed as “reduced” and the “IL-10 mRNA expression” value is recorded as “significantly reduced”.
